According to patent publication US6531511B1, “2-adamantanemethanamine compounds for treating abnormalities in glutamatergic transmission” (Vernalis Research Limited, priority 1999, dated 2003):
Structures can show the parent of a compound that is named as a salt.

SMILES | melting point [°C]
CCc1cccc(C2(CN)C3CC4CC(C3)CC2C4)c1 (stereo not shown) (as salt: hydrochloride) [Example 1, 2-(3-Ethylphenyl)-2-adamantanemethanamine hydrochloride] | 89 to 90
Cc1cccc(C2(CN)C3CC4CC(C3)CC2C4)c1 (stereo not shown) (as salt: hydrochloride) [Example 2, 2-(3-Methylphenyl)-2-adamantanemethanamine hydrochloride] | 242 to 243
NCC1(c2ccccc2)C2CC3CC(C2)CC1C3 (stereo not shown) (as salt: hydrochloride) [Example 3, 2-Phenyl-2-adamantanemethanamine hydrochloride] | 253 to 255
NCC1(c2cccs2)C2CC3CC(C2)CC1C3 (stereo not shown) (as salt: hydrochloride) [Example 10, 2-(2-Thienyl)-2-adamantanemethanamine hydrochloride] | 255 to 257
Cc1ccccc1C1(CN)C2CC3CC(C2)CC1C3 (stereo not shown) (as salt: hydrochloride) | 270 to 271

Next, values leading:

melting point [°C] | SMILES
279 to 281 | NCC1(c2ccc(C(F)(F)F)cc2)C2CC3CC(C2)CC1C3 (stereo not shown) (as salt: hydrochloride) [Example 9, 2-(4-Trifluoromethylphenyl)-2-adamantanemethanamine hydrochloride]
> 300 | NCC1(c2ccc(Cl)cc2)C2CC3CC(C2)CC1C3 (stereo not shown) (as salt: hydrochloride) [Example 7, 2-(4-Chlorophenyl)-2-adamantanemethanamine hydrochloride]
234 to 235 | COc1ccc(C2(CN)C3CC4CC(C3)CC2C4)cc1 (stereo not shown) (as salt: hydrochloride) [Example 8, 2-(4-Methoxyphenyl)-2-adamantanemethanamine hydrochloride]
262 to 263 | NCC1(c2ccc(F)cc2)C2CC3CC(C2)CC1C3 (stereo not shown) (as salt: hydrochloride) [Example 6, 2-(4-Fluorophenyl)-2-adamantanemethanamine hydrochloride]
261 to 263 | Cc1ccc(C2(CN)C3CC4CC(C3)CC2C4)cc1 (stereo not shown) (as salt: hydrochloride) [Example 4, 2-(4-Methylphenyl)-2-adamantanemethanamine hydrochloride]
